# Data from patent publication US20240409585A1, “MACROCYCLIC IMMUNOMODULATORS” (priority 2021, published 2024).
# Numbered stars: 1 amine (or outer) side, 2 acyl side, 3 side chain; on linkers, the order of the positions; unused ones are H or OH. Bridge positions count the residues as written; N and C are the ends. Square brackets hold non-standard residues; d marks the D form. Peptide text beside a SMILES is read from it. * marks the point of attachment. ξ: configuration not given here. Phe(4-COOH) = N[C@@H](Cc1ccc(C(=O)O)cc1)C(=O)O; Bip = N[C@@H](Cc1ccc(-c2ccccc2)cc1)C(=O)O; Phe(3-OMe) = COc1cccc(C[C@H](N)C(=O)O)c1; X50 = C[C@@H](C(=O)[*:2])N(CCCCCN)[*:1]; Phe(3-Me) = Cc1cccc(C[C@H](N)C(=O)O)c1; X34 = O=C([C@H](Cc1ccoc1)N[*:1])[*:2]; Val(3-OH) = CC(C)(O)[C@H](N)C(=O)O; aIle = CC[C@@H](C)[C@H](N)C(=O)O; 3Pal = N[C@@H](Cc1cccnc1)C(=O)O; 4Pal = N[C@@H](Cc1ccncc1)C(=O)O; Cha = N[C@@H](CC1CCCCC1)C(=O)O; Cit = NC(=O)NCCC[C@H](N)C(=O)O; Ile(3ξ) = CCC(C)[C@H](N)C(=O)O; NMeOrn = CN[C@@H](CCCN)C(=O)O; Thr(3ξ) = CC(O)[C@H](N)C(=O)O; NMeNva = CCC[C@H](NC)C(=O)O; Carboxymethyl = O=C(O)C*; NMeA = CN[C@@H](C)C(=O)O; Nle = CCCC[C@H](N)C(=O)O; Orn = NCCC[C@H](N)C(=O)O; Pra = C#CC[C@H](N)C(=O)O; Dab = NCC[C@H](N)C(=O)O; Dap = NC[C@H](N)C(=O)O
# Target: T1, PE-labeled human PD-L1-Ig binding to Jurkat cell line over-expressing human PD-1 (Jurkat-PD-1) (Homo sapiens, UniProt Q15116)
# T1 construct: expressed in transfected cells; host or cells: Jurkat
# Experiment: Jurkat-PD-1 Cell Binding High-Content Screening Assay (CBA): Method 1
# Conditions: Jurkat-PD-1 cells, PE-labeled PD-L1-Ig; μM; read-out: CBA Method 1 μM
# T1 sequence (Q15116 25-288): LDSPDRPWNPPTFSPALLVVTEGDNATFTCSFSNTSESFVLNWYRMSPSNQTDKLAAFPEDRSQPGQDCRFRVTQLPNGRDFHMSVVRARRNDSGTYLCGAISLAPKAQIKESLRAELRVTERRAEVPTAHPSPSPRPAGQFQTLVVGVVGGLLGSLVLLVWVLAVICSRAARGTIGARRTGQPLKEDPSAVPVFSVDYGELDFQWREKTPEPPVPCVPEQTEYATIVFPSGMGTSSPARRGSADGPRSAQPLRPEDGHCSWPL
row,SMILES,IC50 [µM]
1,CCC(C)[C@@H]1NC(=O)[C@H](Cc2ccc(-c3ccccc3)cc2)NC(=O)[C@H](C(C)C)NC(=O)[C@H](Cc2c[nH]c3ccccc23)NC(=O)[C@H](CC(=O)O)NC(=O)[C@H](Cc2ccc(O)cc2)NC(=O)[C@H](Cc2ccoc2)NC(=O)CSC[C@@H](C(=O)N2CCC[C@H]2C(N)=O)NC(=O)[C@H](C(C)O)NC(=O)[C@H](C(C)(C)O)NC(=O)[C@H](CC2CCCCC2)NC(=O)[C@H](CC(N)=O)NC(=O)[C@@H](CC(C)C)NC(=O)[C@H](C)N(C)C1=O (stereo partly drawn) [Example 5009] ({CH2CO}-[X34]YDWV[Bip][Ile(3ξ)][NMeA][dL]N[Cha][Val(3-OH)][Thr(3ξ)]CP-NH2; thioether N-14),0.45

# Same assay, conditions: Jurkat-hPD-1 cells, PE-labeled PD-L1-Ig 20 nM final; read-out: Jurkat HPDL1 PD1 IC50 (uM) (Method 1)
row,SMILES,IC50 [µM]
1,C#CC[C@H](NC(=O)[C@@H](C)NC(=O)[C@@H]1CSCC(=O)N[C@@H](Cc2ccc(OCC(=O)O)cc2)C(=O)N[C@@H](Cc2ccc(C(=O)O)cc2)C(=O)N[C@@H](CC(=O)O)C(=O)N[C@@H](Cc2c[nH]c3ccccc23)C(=O)N[C@@H](CC(C)C)C(=O)N[C@@H](Cc2ccc(-c3ccccc3)cc2)C(=O)N[C@@H](C(C)C)C(=O)N(C)[C@@H](C)C(=O)N[C@H](CC(C)C)C(=O)N[C@@H](CCN)C(=O)N[C@@H](CC2CCCCC2)C(=O)N[C@@H](C(C)(C)O)C(=O)N[C@@H](CO)C(=O)N1)C(N)=O [Compound 1940] ({CH2CO}-Y(Carboxymethyl)[Phe(4-COOH)]DWL[Bip]V[NMeA][dL][Dab][Cha][Val(3-OH)]SC[dA][Pra]-NH2; thioether N-14),0.02
2,CC(C)C[C@@H]1NC(=O)[C@H](CCCNC(=N)N)NC(=O)[C@@H](C)NC(=O)[C@H](C)N(C)C(=O)[C@H](CCCNC(=N)N)NC(=O)[C@H](Cc2ccc(-c3ccccc3)cc2)NC(=O)[C@H](C(C)C)NC(=O)[C@H](Cc2c[nH]c3ccccc23)NC(=O)[C@H](CC(=O)O)NC(=O)[C@H](Cc2ccc(O)cc2)NC(=O)[C@H](Cc2ccccc2)NC(=O)CSC[C@@H](C(=O)NCC(N)=O)NC(=O)[C@H](CO)NC(=O)[C@H](C(C)C)NC1=O [Compound 1016] ({CH2CO}-FYDWV[Bip]R[NMeA][dA]RLVSCG-NH2; thioether N-14),0.13
3,CC(C)C[C@@H]1NC(=O)[C@H](CCN)NC(=O)[C@@H](CC(C)C)NC(=O)[C@H](C)N(CCCCCN)C(=O)[C@H](CCCNC(=N)N)NC(=O)[C@H](Cc2ccc(-c3ccccc3)cc2)NC(=O)[C@H](C(C)C)NC(=O)[C@H](Cc2c[nH]c3ccccc23)NC(=O)[C@H](CC(=O)O)NC(=O)[C@H](Cc2ccc(O)cc2)NC(=O)[C@H](CC(N)=O)NC(=O)CSC[C@@H](C(=O)N[C@@H](C)C(N)=O)NC(=O)[C@H]([C@@H](C)O)NC(=O)[C@H](C(C)C)NC1=O [Compound 1257] ({CH2CO}-NYDWV[Bip]R[X50][dL][Dab]LVTCA-NH2; thioether N-14),0.13
4,CC[C@@H](C)[C@@H]1NC(=O)[C@H](Cc2ccc(-c3ccccc3)cc2)NC(=O)[C@H](CC(C)C)NC(=O)[C@H](Cc2cccc(C)c2)NC(=O)[C@H](CC(=O)O)NC(=O)[C@H](Cc2ccncc2)NC(=O)[C@H](Cc2ccc(OCC(=O)O)cc2)NC(=O)CSC[C@@H](C(N)=O)NC(=O)[C@H](CO)NC(=O)[C@H](C(C)C)NC(=O)[C@H](CC(C)C)NC(=O)[C@H](CC(N)=O)NC(=O)[C@@H](CC(C)C)NC(=O)[C@H](C)N(C)C1=O [Compound 1638] ({CH2CO}-Y(Carboxymethyl)[4Pal]D[Phe(3-Me)]L[Bip][aIle][NMeA][dL]NLVSC-NH2; thioether N-14),0.07
5,CC(C)C[C@@H]1NC(=O)[C@H](CCN)NC(=O)[C@@H](CC(C)C)NC(=O)[C@H](C)N(C)C(=O)[C@H](CCCNC(N)=O)NC(=O)[C@H](Cc2ccc(-c3ccccc3)cc2)NC(=O)[C@H](C(C)C)NC(=O)[C@H](Cc2c[nH]c3ccccc23)NC(=O)[C@H](CC(=O)O)NC(=O)[C@H](Cc2ccc(C(=O)O)cc2)NC(=O)[C@H](CC(N)=O)NC(=O)CSC[C@@H](C(=O)N[C@@H](C)C(N)=O)NC(=O)[C@H]([C@@H](C)O)NC(=O)[C@H](C(C)C)NC1=O [Compound 1317] ({CH2CO}-N[Phe(4-COOH)]DWV[Bip][Cit][NMeA][dL][Dab]LVTCA-NH2; thioether N-14),0.04
6,CCCC[C@@H]1NC(=O)[C@H](CCN)NC(=O)[C@@H](CC(C)C)NC(=O)[C@H](C)N(C)C(=O)[C@H](C(C)C)NC(=O)[C@H](Cc2ccc(-c3ccccc3)cc2)NC(=O)[C@H](C(C)C)NC(=O)[C@H](Cc2c[nH]c3ccccc23)NC(=O)[C@H](CC(=O)O)NC(=O)[C@H](Cc2ccc(O)cc2)NC(=O)[C@H](CC(N)=O)NC(=O)CSC[C@@H](C(=O)N[C@@H](C)C(N)=O)NC(=O)[C@H]([C@@H](C)O)NC(=O)[C@H](C(C)C)NC1=O [Compound 1295] ({CH2CO}-NYDWV[Bip]V[NMeA][dL][Dab][Nle]VTCA-NH2; thioether N-14),0.02
7,CC(C)C[C@@H]1NC(=O)[C@H](Cc2c[nH]c3ccccc23)NC(=O)[C@H](CC(=O)O)NC(=O)[C@H](Cc2ccc(O)cc2)NC(=O)[C@H](Cc2ccccc2)NC(=O)CSC[C@@H](C(=O)N[C@@H](C)C(N)=O)NC(=O)[C@H]([C@@H](C)O)NC(=O)[C@H](CCCN)NC(=O)[C@H](CC(C)C)NC(=O)[C@H](CC(N)=O)NC(=O)[C@@H](C)NC(=O)[C@H](C)N(C)C(=O)[C@H](C(C)C)NC(=O)[C@H](Cc2ccc(-c3ccccc3)cc2)NC1=O [Compound 1533] ({CH2CO}-FYDWL[Bip]V[NMeA][dA]NL[Orn]TCA-NH2; thioether N-14),0.15
8,COc1cccc(C[C@@H]2NC(=O)[C@H](CN)NC(=O)CSC[C@@H](C(=O)N[C@@H](C)C(N)=O)NC(=O)[C@H]([C@@H](C)O)NC(=O)[C@H](C(C)C)NC(=O)[C@H](CC(C)C)NC(=O)[C@H](CCN)NC(=O)[C@@H](CC(C)C)NC(=O)[C@H](C)N(C)C(=O)[C@H](C(C)C)NC(=O)[C@H](Cc3ccc(-c4ccccc4)cc3)NC(=O)[C@H](C(C)C)NC(=O)[C@H](Cc3c[nH]c4ccccc34)NC(=O)[C@H](CC(=O)O)NC2=O)c1 [Compound 1427] ({CH2CO}-[Dap][Phe(3-OMe)]DWV[Bip]V[NMeA][dL][Dab]LVTCA-NH2; thioether N-14),0.11
9,CC(=O)NCCCC[C@@H]1NC(=O)[C@H](C(C)C)NC(=O)[C@H](CC2CCCCC2)NC(=O)[C@H](CCN)NC(=O)[C@@H](CC(C)C)NC(=O)[C@H](C)N(C)C(=O)[C@H](CCC(N)=O)NC(=O)[C@H](Cc2ccc(-c3ccccc3)cc2)NC(=O)[C@H](Cc2ccc(OCC(=O)O)cc2)NC(=O)[C@H](Cc2cccc(C)c2)NC(=O)[C@H](CC(=O)O)NC(=O)[C@H](Cc2ccc(OCC(=O)O)cc2)NC(=O)[C@H](Cc2ccncc2)NC(=O)CSC[C@@H](C(=O)N[C@@H](CCN)C(N)=O)NC1=O [Compound 2203] ({CH2CO}-[4Pal]Y(Carboxymethyl)D[Phe(3-Me)]Y(Carboxymethyl)[Bip]Q[NMeA][dL][Dab][Cha]VK(Ac)C[Dab]-NH2; thioether N-14),0.01
10,CC(C)C[C@@H]1NC(=O)[C@H](CCCNC(=N)N)NC(=O)[C@@H](CC(C)C)NC(=O)[C@H](C)N(C)C(=O)[C@H](CCCNC(=N)N)NC(=O)[C@H](Cc2ccc(-c3ccccc3)cc2)NC(=O)[C@H](C(C)C)NC(=O)[C@H](Cc2c[nH]c3ccccc23)NC(=O)[C@H](CC(=O)O)NC(=O)[C@H](Cc2ccc(O)cc2)NC(=O)[C@H](CC(N)=O)NC(=O)CSC[C@@H](C(=O)N[C@@H](C)C(N)=O)NC(=O)[C@H](CCCN)NC(=O)[C@H](C(C)C)NC1=O [Compound 1252] ({CH2CO}-NYDWV[Bip]R[NMeA][dL]RLV[Orn]CA-NH2; thioether N-14),0.09
11,CCC[C@H]1C(=O)N[C@H](CC(C)C)C(=O)N[C@@H](CCN)C(=O)N[C@@H](CC(C)C)C(=O)N[C@@H](C(C)C)C(=O)N[C@@H]([C@@H](C)O)C(=O)N[C@H](C(=O)N[C@@H](C)C(N)=O)CSCC(=O)N[C@@H](CC(N)=O)C(=O)N[C@@H](Cc2ccc(O)cc2)C(=O)N[C@@H](CC(=O)O)C(=O)N[C@@H](Cc2c[nH]c3ccccc23)C(=O)N[C@@H](C(C)C)C(=O)N[C@@H](Cc2ccc(-c3ccccc3)cc2)C(=O)N[C@@H](C(C)C)C(=O)N1C [Compound 1369] ({CH2CO}-NYDWV[Bip]V[NMeNva][dL][Dab]LVTCA-NH2; thioether N-14),0.03
12,CCC(C)[C@@H]1NC(=O)[C@H](Cc2ccc(-c3ccccc3)cc2)NC(=O)[C@H](C(C)C)NC(=O)[C@H](Cc2c[nH]c3ccccc23)NC(=O)[C@H](CC(=O)O)NC(=O)[C@H](Cc2ccc(C(=O)O)cc2)NC(=O)[C@H](Cc2ccc(OCC(=O)O)cc2)NC(=O)CSC[C@@H](C(=O)N[C@@H](CCC(=O)O)C(=O)N[C@H](C(N)=O)C(=O)O)NC(=O)[C@H](CO)NC(=O)[C@H](C(C)C)NC(=O)[C@H](CC2CCCCC2)NC(=O)[C@H](CC(N)=O)NC(=O)[C@@H](CC(C)C)NC(=O)[C@H](C)N(C)C1=O (stereo partly drawn) [Compound 2008],0.04
13,CC(C)C[C@@H]1NC(=O)[C@H](CCN)NC(=O)[C@@H](CC(C)C)NC(=O)[C@H](C)N(C)C(=O)[C@H](CCCNC(=N)N)NC(=O)[C@H](Cc2ccc(-c3ccccc3)cc2)NC(=O)[C@H](C(C)C)NC(=O)[C@H](Cc2c[nH]c3ccccc23)NC(=O)[C@H](CC(=O)O)NC(=O)[C@H](Cc2ccncc2)NC(=O)[C@H](Cc2cccnc2)NC(=O)CSC[C@@H](C(=O)N[C@@H](C)C(N)=O)NC(=O)[C@H]([C@@H](C)O)NC(=O)[C@H](C(C)C)NC1=O [Compound 1147] ({CH2CO}-[3Pal][4Pal]DWV[Bip]R[NMeA][dL][Dab]LVTCA-NH2; thioether N-14),0.02
14,Cc1cccc(C[C@@H]2NC(=O)[C@H](CC(=O)O)NC(=O)[C@H](Cc3ccc(OCC(=O)O)cc3)NC(=O)[C@H](Cc3ccncc3)NC(=O)CSC[C@@H](C(=O)N[C@@H](CCN)C(N)=O)NC(=O)[C@H](CO)NC(=O)[C@H](C(C)(C)O)NC(=O)[C@H](CC3CCCCC3)NC(=O)[C@H](CCN)NC(=O)[C@@H](CC(C)C)NC(=O)[C@H](CCCN)N(C)C(=O)[C@H](Cc3ccc(OCC(=O)O)cc3)NC(=O)[C@H](Cc3ccc(-c4ccccc4)cc3)NC(=O)[C@H](Cc3ccc(OCC(=O)O)cc3)NC2=O)c1 [Compound 1836] ({CH2CO}-[4Pal]Y(Carboxymethyl)D[Phe(3-Me)]Y(Carboxymethyl)[Bip]Y(Carboxymethyl)[NMeOrn][dL][Dab][Cha][Val(3-OH)]SC[Dab]-NH2; thioether N-14),0.67
